This is an account of results in article PMC6017931, “A Novel Class of Schistosoma mansoni Histone Deacetylase 8 (HDAC8) Inhibitors Identified by Structure-Based Virtual Screening and In Vitro Testing” (Molecules : A Journal of Synthetic Chemistry and Natural …, 2018).

For one assay, the target named is T1, smHDAC8 (Schistosoma mansoni, UniProt A5H660).
T1 construct: made in house; host or cells: E. coli
T1 sequence (A5H660 1-440): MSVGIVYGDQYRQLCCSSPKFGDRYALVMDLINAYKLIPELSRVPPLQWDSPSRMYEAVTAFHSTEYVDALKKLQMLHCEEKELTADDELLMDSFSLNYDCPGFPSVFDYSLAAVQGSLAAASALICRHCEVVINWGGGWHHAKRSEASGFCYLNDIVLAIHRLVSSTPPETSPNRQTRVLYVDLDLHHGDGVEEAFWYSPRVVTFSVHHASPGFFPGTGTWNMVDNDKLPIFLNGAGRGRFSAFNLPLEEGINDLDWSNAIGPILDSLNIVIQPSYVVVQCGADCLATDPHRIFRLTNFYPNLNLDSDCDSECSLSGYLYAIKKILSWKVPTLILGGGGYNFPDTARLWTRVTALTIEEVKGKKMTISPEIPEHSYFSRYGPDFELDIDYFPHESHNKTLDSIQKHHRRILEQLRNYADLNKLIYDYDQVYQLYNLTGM
As to the kind of experiment: smHDAC8 in vitro inhibition assay. The format is biochemical. The following applies: for IC50: mean ± S.E., Fluor de Lys-HDAC8 substrate 50 µM, 90 min at 37 °C. The method, then:
The biological assay was carried out using purified smHDAC8 protein and the small molecule substrate Z(Tfa)Lys-AMC (ZMTFAL) as previously reported. To assess the selectivity, the selected compounds were further tested against the human orthologue hsHDAC8 as well as the major human HDAC isoforms (HDAC1 and -6) using an established in vitro assay.
Recombinant human HDAC1 and HDAC6 were purchased from BPS Bioscience. Recombinant human HDAC8 was expressed and purified as previously described. Recombinant smHDAC8 enzyme was produced in E. coli cells and purified by a method previously described by us. Inhibition assays of smHDAC8 and human HDACs were performed as already described in previous publications. Briefly, the commercial Fluor de Lys kit (BML-KI178) was used for testing inhibition of smHDAC8 and hsHDAC8. Test compounds, Fluor de Lys-HDAC8 substrate (50 µM) and enzyme were incubated for 90 min at 37 °C with subsequent addition of 50 μL Developer II (BML-KI176) and further incubation for 45 min at 30 °C. Fluorescence was measured in a plate reader (BMG Polarstar) with excitation at λ = 390 nm and emission at λ = 460 nm. Inhibition tests of human HDAC1 and 6 were conducted using ZMAL (Cbz-(Ac)Lys-AMC) as substrate and trypsin as a developer. […] Trichostatin A (2 µM) was used in both assays to stop the reaction. Fluorescence was measured similarly as mentioned above. IC50 values were determined with OriginPro (version 9.0.0, Northampton, MA, USA). IC50 Values in Table 1 are given as mean ± S.E.

The next assay deals with T2, hsHDAC8 (Homo sapiens, UniProt Q9BY41).
T2 construct: made in house
T2 sequence (Q9BY41 1-377): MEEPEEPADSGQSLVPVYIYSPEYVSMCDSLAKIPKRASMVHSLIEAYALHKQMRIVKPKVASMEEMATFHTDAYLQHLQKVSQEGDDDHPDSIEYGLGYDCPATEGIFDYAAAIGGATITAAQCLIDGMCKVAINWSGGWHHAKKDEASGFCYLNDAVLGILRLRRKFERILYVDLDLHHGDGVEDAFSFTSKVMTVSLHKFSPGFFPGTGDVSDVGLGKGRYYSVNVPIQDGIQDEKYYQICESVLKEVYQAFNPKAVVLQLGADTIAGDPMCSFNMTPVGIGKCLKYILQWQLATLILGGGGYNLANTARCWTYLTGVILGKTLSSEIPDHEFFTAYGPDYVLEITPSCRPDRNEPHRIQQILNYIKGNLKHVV
Nature of the assay: hsHDAC8 in vitro inhibition assay. The format is biochemical. The following applies: mean ± S.E.; Fluor de Lys-HDAC8 substrate 50 µM, 90 min at 37 °C. As for the experimental part:
(§1) The biological assay was carried out using purified smHDAC8 protein and the small molecule substrate Z(Tfa)Lys-AMC (ZMTFAL) as previously reported. To assess the selectivity, the selected compounds were further tested against the human orthologue hsHDAC8 as well as the major human HDAC isoforms (HDAC1 and -6) using an established in vitro assay. […] Recombinant human HDAC1 and HDAC6 were purchased from BPS Bioscience. Recombinant human HDAC8 was expressed and purified as previously described. Recombinant smHDAC8 enzyme was produced in E. coli cells and purified by a method previously described by us. Inhibition assays of smHDAC8 and human HDACs were performed as already described in previous publications. Briefly, the commercial Fluor de Lys kit (BML-KI178) was used for testing inhibition of smHDAC8 and hsHDAC8. Test compounds, Fluor de Lys-HDAC8 substrate (50 µM) and enzyme were incubated for 90 min at 37 °C with subsequent addition of 50 μL Developer II (BML-KI176) and further incubation for 45 min at 30 °C. Fluorescence was measured in a plate reader (BMG Polarstar) with excitation at λ = 390 nm and emission at λ = 460 nm. Inhibition tests of human HDAC1 and 6 were conducted using ZMAL (Cbz-(Ac)Lys-AMC) as substrate and trypsin as a developer. […] Trichostatin A (2 µM) was used in both assays to stop the reaction. Fluorescence was measured similarly as mentioned above. IC50 values were determined with OriginPro (version 9.0.0, Northampton, MA, USA). IC50 Values in Table 1 are given as mean ± S.E.

The target of a further assay is T3, hsHDAC1 (Homo sapiens, UniProt Q13547).
T3 construct: purchased BPS Bioscience
Nature of the assay: hsHDAC1 in vitro inhibition assay. The settings on record: mean ± S.E.; ZMAL 10.5 µM, 90 min at 37 °C. Type of assay: biochemical. The method, then: as §1

A further assay concerns the target T4, hsHDAC6 (Homo sapiens, UniProt Q9UBN7).
T4 construct: purchased BPS Bioscience
T4 sequence (Q9UBN7 1-1215): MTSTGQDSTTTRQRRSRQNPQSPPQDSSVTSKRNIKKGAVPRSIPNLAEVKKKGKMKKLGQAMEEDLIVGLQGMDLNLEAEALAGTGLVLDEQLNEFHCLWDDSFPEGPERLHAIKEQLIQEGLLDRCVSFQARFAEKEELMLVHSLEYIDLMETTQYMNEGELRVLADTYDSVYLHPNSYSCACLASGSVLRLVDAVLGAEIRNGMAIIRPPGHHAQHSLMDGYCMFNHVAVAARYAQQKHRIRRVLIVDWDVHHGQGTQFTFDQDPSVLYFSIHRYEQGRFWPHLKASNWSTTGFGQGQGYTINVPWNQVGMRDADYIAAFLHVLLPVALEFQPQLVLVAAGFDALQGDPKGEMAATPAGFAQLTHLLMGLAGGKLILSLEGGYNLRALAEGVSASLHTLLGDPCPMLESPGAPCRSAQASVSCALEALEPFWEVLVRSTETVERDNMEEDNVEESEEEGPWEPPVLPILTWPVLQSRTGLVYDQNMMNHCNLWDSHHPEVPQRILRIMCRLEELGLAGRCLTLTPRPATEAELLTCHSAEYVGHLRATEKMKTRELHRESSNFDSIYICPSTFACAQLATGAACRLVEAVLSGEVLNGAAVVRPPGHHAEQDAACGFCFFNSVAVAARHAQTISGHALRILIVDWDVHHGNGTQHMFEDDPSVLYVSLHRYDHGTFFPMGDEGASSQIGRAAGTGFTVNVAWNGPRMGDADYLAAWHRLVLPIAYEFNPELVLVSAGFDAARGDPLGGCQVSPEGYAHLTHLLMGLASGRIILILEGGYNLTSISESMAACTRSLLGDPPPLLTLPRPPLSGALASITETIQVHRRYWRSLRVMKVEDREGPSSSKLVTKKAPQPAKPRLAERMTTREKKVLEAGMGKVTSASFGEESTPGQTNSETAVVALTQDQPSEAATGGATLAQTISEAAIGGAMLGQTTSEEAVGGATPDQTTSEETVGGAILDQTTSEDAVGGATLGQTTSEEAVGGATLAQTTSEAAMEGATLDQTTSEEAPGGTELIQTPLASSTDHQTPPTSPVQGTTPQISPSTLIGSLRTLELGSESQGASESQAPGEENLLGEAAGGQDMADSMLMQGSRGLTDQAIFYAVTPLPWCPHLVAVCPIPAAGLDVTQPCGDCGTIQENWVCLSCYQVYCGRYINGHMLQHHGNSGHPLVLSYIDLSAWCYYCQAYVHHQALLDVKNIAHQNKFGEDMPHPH
As to the kind of experiment: hsHDAC6 in vitro inhibition assay. The settings on record: for IC50: mean ± S.E., ZMAL 10.5 µM, 90 min at 37 °C. Type of assay: biochemical. The method, then:
as §1

The test system of assay [1] is S. mansoni schistosomula. As to the kind of experiment: Apoptosis induction in schistosomula (TUNEL). The format is cell-based, Schistosoma mansoni. The following applies: 100 µM, after 3 days. As for the experimental part: The compound J1036 induced dose-dependent apoptosis in the infective larval stage (schistosomula) of S. mansoni, affecting 67% of the larvae after 3 days at a dose of 100 µM (Figure 4), whereas a polar hydroxamate derivative (J1038) identified by a previous virtual screening was ineffective in the same assay (data not shown here). […]. Although we cannot directly correlate the inhibitory activity on smHDAC8 with the lethal effect of J1036 on schistosomula, the high level of expression of this class I HDAC [21] in the parasite, and its validation as a stand-alone target by transcript knockdown, mean that its inhibition is sufficient to induce the effects observed.
Figure 4 J1036 induces apoptosis in S. mansoni schistosomula in vitro. (A) Dose-dependent induction of apoptosis determined by dUTP nick end labeling (TUNEL) shown as the percentage of parasites positively labeled; (B) TUNEL staining of schistosomula treated with 100 µM J1036 for 3 days. Parasites were counterstained using 4′,6-Diamidino-2-Phenylindole (DAPI).
The capacity of compounds J1036 and J1038 to induce apoptosis in S. mansoni schistosomula was measured using dUTP nick end labelling (TUNEL) and the In Situ Cell Death Detection Kit TMR (Roche Applied Science, Penzberg, Germany) exactly as previously described.

The subject of assay [2] is S. mansoni schistosomula. Set-up: method as in PMID 24086136. The settings on record: at 100 µM; cited from earlier work.

Broadly, the IC50 is the concentration needed to halve the response being measured. Lower therefore signals higher potency. For orientation: inhibition means the share of the control response that was lost under treatment. A higher inhibition goes with strong suppression.

T3 sequence (Q13547 whole entry): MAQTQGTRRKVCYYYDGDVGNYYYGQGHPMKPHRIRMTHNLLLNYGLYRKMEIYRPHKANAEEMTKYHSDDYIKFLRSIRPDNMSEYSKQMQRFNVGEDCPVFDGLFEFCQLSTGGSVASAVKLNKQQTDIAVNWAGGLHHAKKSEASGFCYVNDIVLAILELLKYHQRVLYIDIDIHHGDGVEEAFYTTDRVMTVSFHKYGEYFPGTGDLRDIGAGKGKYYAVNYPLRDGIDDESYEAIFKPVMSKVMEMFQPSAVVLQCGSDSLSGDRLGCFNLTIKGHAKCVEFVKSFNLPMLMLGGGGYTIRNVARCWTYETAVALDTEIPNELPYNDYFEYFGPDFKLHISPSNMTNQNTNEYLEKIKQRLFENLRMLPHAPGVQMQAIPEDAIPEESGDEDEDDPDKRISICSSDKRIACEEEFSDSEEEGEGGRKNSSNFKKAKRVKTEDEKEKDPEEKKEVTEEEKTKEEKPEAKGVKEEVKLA

As for `CCCCCC(=O)N(O)C1CC(=O)N(c2ccc(Cl)cc2)C1=O` (stereo not shown) [J1036], the concentration for half-maximal inhibition (IC50) against smHDAC8 turned out to be 4.4 ± 0.17 µM; against hsHDAC8 it was 0.49 ± 0.18 µM; against hsHDAC1, 6.76 ± 0.97 µM; against hsHDAC6, 5.02 ± 0.31 µM. Also, in the assay with S. mansoni schistosomula [1], the “apoptosis, percentage of larvae affected (TUNEL positive)” value is listed as 67%.

On to `CCCCC(=O)N(O)C1CC(=O)N(c2ccccc2)C1=O` (stereo not shown) [J1057], for which the IC50 was found to be 13.2 ± 1.85 µM on smHDAC8, 2.62 ± 0.19 µM against hsHDAC8, 42.1 ± 2.2 µM on hsHDAC1 and 6.2 ± 0.34 µM on hsHDAC6.

Regarding `CCCCCC(=O)N(O)C1CC(=O)N(c2ccccc2)C1=O` (stereo not shown) [J1058], the IC50 was 20.3 ± 2.78 µM against smHDAC8, 3.99 ± 0.74 µM at hsHDAC8, 26 ± 2.4 µM against hsHDAC1 and 6.2 ± 0.41 µM at hsHDAC6.

With `CCCCCCC(=O)N(O)C1CC(=O)N(c2ccccc2)C1=O` (stereo not shown) [J1060], the 50% inhibitory concentration (IC50) against smHDAC8 is 11.5 ± 0.91 µM; at hsHDAC8 it was 1.8 ± 0.24 µM; against hsHDAC1, 5 ± 0.42 µM; at hsHDAC6 it was 0.86 ± 0.12 µM. Moreover, on hsHDAC6, the “inhibitory activity against HDAC6 (in words)” value (from here on “inhibitory activity”) was “submicromolar”.

For `CCCCCCC(=O)N(O)C1CC(=O)N(c2ccc(Cl)cc2)C1=O` (stereo not shown) [J1061], the IC50 against smHDAC8 is 5.5 ± 0.7 µM; against hsHDAC8 it was 7.69 ± 3.3 µM; against hsHDAC1 it was 3.98 ± 0.45 µM; on hsHDAC6 it was 2.65 ± 0.29 µM.

On to `CCCCCCC(=O)N(O)C1CC(=O)N(c2ccc(Br)cc2)C1=O` (stereo not shown) [J1063], for which the IC50 against smHDAC8 worked out at 5.9 ± 1.6 µM; on hsHDAC8 it was 7.72 ± 4.42 µM; against hsHDAC1 it was 1.42 ± 0.13 µM; against hsHDAC6, 0.77 ± 0.09 µM. Besides, on hsHDAC6, the “inhibitory activity” value is “submicromolar”.

In the case of `CCCCCCC(=O)N(O)C1CC(=O)N(c2ccc(F)cc2)C1=O` (stereo not shown) [J1064], the IC50 against smHDAC8 worked out at 7.79 ± 0.28 µM; on hsHDAC8, 2.08 ± 0.34 µM; at hsHDAC1, 4.3 ± 0.46 µM; at hsHDAC6 it was 0.6 ± 0.12 µM. In addition, at hsHDAC6, the “inhibitory activity” value was “submicromolar”.

In the case of `CCCCCCC(=O)N(O)C1CC(=O)N(c2ccc(C)cc2)C1=O` (stereo not shown) [J1065], the IC50 is 20.2 ± 2.7 µM against smHDAC8, 3.96 ± 0.6 µM against hsHDAC8, 8.4 ± 0.28 µM at hsHDAC1 and 1.57 ± 0.37 µM against hsHDAC6.

On to `CCCCCCC(=O)N(O)C1CC(=O)N(c2cccc(Cl)c2C)C1=O` (stereo not shown) [J1066], for which the inhibition at 25 µM against smHDAC8 (at 25 µM) turned out to be 13%.

For the molecule `O=C(NO)c1sc2ccccc2c1Cl` [J1075], the “apoptosis, percentage of larvae affected” value in the assay on S. mansoni schistosomula [2] is on record as 54%.

`O=C(CCCCCCC(=O)Nc1ccccc1)NO` [SAHA]: the “apoptosis, percentage of larvae affected” value in the assay with S. mansoni schistosomula [2] was 43%.

As for `COc1ccc(C(=O)NO)cc1NC(=O)c1ccc(-c2ccccc2)cc1` [TH65, reference compound], the IC50 against smHDAC8 amounted to 0.075 ± 0.025 µM; at hsHDAC8 it was 0.026 ± 0.017 µM; on hsHDAC1, 6.3 ± 2.1 µM; on hsHDAC6, 0.39 ± 0.002 µM.
